Experimental data published in ChEMBL document CHEMBL3784979, “Design, synthesis and biological evaluation of novel benzimidazole-2-substituted phenyl or pyridine propyl ketene derivatives as antitumour agents” (Eur J Med Chem, 2016).
Activity calls are given as the source filed them. The rule behind the calls is not given here.

Key:
[1] = Antiproliferative activity against human HCT116 cells after 48 hrs by MTT assay; assay type: functional, cell-based; settings: HCT-116, 48 h
[2] = tested on: MCF7; experiment: Antiproliferative activity against human MCF7 cells after 48 hrs by MTT assay; assay type: functional, cell-based; settings: MCF7, 48 h
[3] = tested on: HepG2; experiment: Antiproliferative activity against human HepG2 cells after 48 hrs by MTT assay; assay type: functional, cell-based; settings: HepG2, 48 h
[4] = Antiproliferative activity against p53 deficient human HCT116 cells after 48 hrs by MTT assay; assay type: functional, cell-based; settings: HCT-116, 48 h
[5] = Antitumor activity against human HCT116 cells xenografted in BALB/c mouse assessed as tumor growth inhibition at 12.5 mg/kg, ip twice weekly for 4 weeks measured 24 hrs post last dose relative to control; assay type: functional; settings: HCT-116, ip, read-out: TGI
[6] = tested on: Mus musculus; experiment: Toxicity in BALB/c mouse assessed as reduction in body weight at 12.5 mg/kg, ip twice weekly for 4 weeks measured 24 hrs post last dose; assay type: organism-based; settings: in vivo
[7] = tested on: HCT-116; experiment: Potency index, ratio of 5-fluorouracil IC50 to compound IC50 for human HCT116 cells; assay type: functional
[8] = Cell cycle arrest in human HCT116 cells assessed as accumulation at G1 phase at 0.06 uM after 72 hrs by propidium iodide staining based flow cytometry (reference value: 31.72 +/- 2.21%); assay type: functional; settings: HCT-116
[9] = Cell cycle arrest in human HCT116 cells assessed as accumulation at S phase at 0.06 uM after 72 hrs by propidium iodide staining based flow cytometry (reference value: 40.55 +/- 1.36%); assay type: functional; settings: HCT-116
[10] = Cell cycle arrest in human HCT116 cells assessed as accumulation at G2 phase at 0.06 uM after 72 hrs by propidium iodide staining based flow cytometry (reference value: 27.73 +/- 3.56%); assay type: functional; settings: HCT-116
[11] = molecular target: T1, Tumour suppressor p53/oncoprotein Mdm2 (Homo sapiens) (UniProt P04637+Q00987); experiment: Inhibition of MDM2/P53 protein interaction in human HCT116 cells at 0.1 to 1 uM after 24 hrs by immunoprecipitation analysis; assay type: cell-based; settings: HCT-116
T1 sequence (P04637 whole entry, looked up): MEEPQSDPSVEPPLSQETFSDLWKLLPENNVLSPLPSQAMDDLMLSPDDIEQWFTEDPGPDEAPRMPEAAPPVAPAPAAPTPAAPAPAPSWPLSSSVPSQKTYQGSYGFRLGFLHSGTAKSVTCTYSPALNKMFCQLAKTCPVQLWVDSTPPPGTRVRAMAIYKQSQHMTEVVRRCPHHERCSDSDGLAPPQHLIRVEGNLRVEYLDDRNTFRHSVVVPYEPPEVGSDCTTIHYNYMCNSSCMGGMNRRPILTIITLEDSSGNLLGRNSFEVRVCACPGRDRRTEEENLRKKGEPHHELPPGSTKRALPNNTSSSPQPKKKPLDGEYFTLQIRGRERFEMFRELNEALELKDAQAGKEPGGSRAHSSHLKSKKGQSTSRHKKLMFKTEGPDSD
T1 sequence (Q00987 whole entry, looked up): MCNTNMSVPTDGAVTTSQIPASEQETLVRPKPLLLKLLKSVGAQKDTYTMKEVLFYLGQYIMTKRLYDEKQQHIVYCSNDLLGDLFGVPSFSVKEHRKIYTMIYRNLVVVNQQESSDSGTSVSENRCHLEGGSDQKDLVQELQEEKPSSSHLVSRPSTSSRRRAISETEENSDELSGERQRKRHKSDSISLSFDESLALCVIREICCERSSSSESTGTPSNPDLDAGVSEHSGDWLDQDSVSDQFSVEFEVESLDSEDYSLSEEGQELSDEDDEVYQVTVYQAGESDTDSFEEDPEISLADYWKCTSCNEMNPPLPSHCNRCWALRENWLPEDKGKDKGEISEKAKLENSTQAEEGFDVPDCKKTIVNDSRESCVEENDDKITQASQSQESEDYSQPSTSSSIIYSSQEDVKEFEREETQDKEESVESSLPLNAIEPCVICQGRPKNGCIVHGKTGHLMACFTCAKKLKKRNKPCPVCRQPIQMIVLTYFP

[12] = Toxicity in ip dosed BALB/c mouse by bliss test; assay type: organism-based; settings: in vivo
[13] = tested on: HCT-116; experiment: Antitumor activity against human HCT116 cells xenografted in ip dosed BALB/c mouse assessed as tumor growth inhibition administered twice weekly for 4 weeks measured 24 hrs post last dose; assay type: functional, organism-based
[14] = tested on: Mus musculus; experiment: Toxicity in BALB/c mouse assessed as change in body weight at 100 to 200 mg/kg, ip twice weekly for 4 weeks measured 24 hrs post last dose; assay type: organism-based; settings: in vivo
[15] = Cell cycle arrest in human HCT116 cells assessed as accumulation at G1 phase at 0.04 uM after 72 hrs by propidium iodide staining based flow cytometry (reference value: 31.72 +/- 2.21%); assay type: functional; settings: HCT-116
[16] = Cell cycle arrest in human HCT116 cells assessed as accumulation at S phase at 0.04 uM after 72 hrs by propidium iodide staining based flow cytometry (reference value: 40.55 +/- 1.36%); assay type: functional; settings: HCT-116
[17] = Cell cycle arrest in human HCT116 cells assessed as accumulation at G2 phase at 0.04 uM after 72 hrs by propidium iodide staining based flow cytometry (reference value: 27.73 +/- 3.56%); assay type: functional; settings: HCT-116
[18] = Antitumor activity against human HCT116 cells xenografted in BALB/c mouse assessed as tumor growth inhibition at 200 mg/kg, ip twice weekly for 4 weeks measured 24 hrs post last dose relative to control; assay type: functional; settings: HCT-116, ip, read-out: TGI
[19] = Cell cycle arrest in human HCT116 cells assessed as accumulation at G1 phase at 0.58 uM after 72 hrs by propidium iodide staining based flow cytometry (reference value: 31.72 +/- 2.21%); assay type: functional; settings: HCT-116
[20] = Cell cycle arrest in human HCT116 cells assessed as accumulation at S phase at 0.58 uM after 72 hrs by propidium iodide staining based flow cytometry (reference value: 40.55 +/- 1.36%); assay type: functional; settings: HCT-116
[21] = Cell cycle arrest in human HCT116 cells assessed as accumulation at G2 phase at 0.58 uM after 72 hrs by propidium iodide staining based flow cytometry (reference value: 27.73 +/- 3.56%); assay type: functional; settings: HCT-116
[22] = molecular target: T1, Tumour suppressor p53/oncoprotein Mdm2 (Homo sapiens); experiment: Inhibition of MDM2/P53 protein interaction in human HCT116 cells at 0.5 to 5 uM after 24 hrs by immunoprecipitation analysis; assay type: cell-based; settings: HCT-116
[23] = Cell cycle arrest in human HCT116 cells assessed as accumulation at G1 phase after 72 hrs by propidium iodide staining based flow cytometry (reference value: 31.72 +/- 2.21%); assay type: functional; settings: HCT-116
[24] = Cell cycle arrest in human HCT116 cells assessed as accumulation at S phase after 72 hrs by propidium iodide staining based flow cytometry (reference value: 40.55 +/- 1.36%); assay type: functional; settings: HCT-116
[25] = Cell cycle arrest in human HCT116 cells assessed as accumulation at G2 phase after 72 hrs by propidium iodide staining based flow cytometry (reference value: 27.73 +/- 3.56%); assay type: functional; settings: HCT-116

SMILES | IC50 [1] [µM] | IC50 [2] [µM] | IC50 [3] [µM] | also measured
O=C(/C=C/c1ccccc1)c1nc2ccccc2[nH]1 | 0.2 | 39.8 | 6.3 | IC50 [4]: 2.07 µM
O=C(/C=C/c1cccnc1)c1nc2ccccc2[nH]1 | 15.3 | 21.7 | 8.48 | 
O=C(/C=C/c1cccc(Cl)c1)c1nc2ccccc2o1 | > 100 | > 100 | > 100 | 
O=C(CCc1ccccn1)c1nc2ccccc2[nH]1 | > 100 | > 100 | > 100 | 
CCc1c2c(nc3ccc(OC(=O)N4CCC(N5CCCCC5)CC4)cc13)-c1cc3c(c(=O)n1C2)COC(=O)[C@]3(O)CC [IRINOTECAN] |  |  |  | inhibition in vivo at 12.5 mg/kg [5]: 70.2%; Activity [6]: 3.66 g
O=C(/C=C/c1ccccc1Br)c1nc2ccccc2[nH]1 | 16.4 | 50.9 | 29.2 | 
O=C(/C=C/c1ccccn1)c1nc2ccccc2[nH]1 | 0.06 | 3.64 | 0.34 | Ratio IC50 [7]: 950; IC50 [4]: 1.45 µM; Activity [8]: 64.5%; Activity [9]: 18.9%; Activity [10]: 16.6%; inhibition [11]: Active; LD50 [12]: 634 mg/kg; TGI [13]: Dose-dependent effect; Activity [14]: Non-toxic
O=c1[nH]cc(F)c(=O)[nH]1 [FLUOROURACIL] | 57 | 223 | 174 | 
O=C(/C=C/c1cccc(Cl)c1)c1nc2ccccc2[nH]1 | 0.03 | 9.8 | 0.75 | Ratio IC50 [7]: 950; IC50 [4]: 1.95 µM; Activity [15]: 65%; Activity [16]: 17.2%; Activity [17]: 17.8%; inhibition [11]: Active; LD50 [12]: 692 mg/kg; inhibition in vivo at 200 mg/kg [18]: 74.6%; TGI [13]: Dose-dependent effect; Activity [14]: Non-toxic
O=C(/C=C/c1cccc(Cl)c1)c1nc2ccccc2s1 | > 100 | > 100 | > 100 | 
COc1cccc(/C=C/C(=O)c2nc3ccccc3s2)c1 | > 100 | > 100 | > 100 | 
CC(=O)O[C@H]1C(=O)[C@@]2(C)[C@H]([C@H](OC(=O)c3ccccc3)[C@]3(O)C[C@H](OC(=O)[C@H](O)[C@@H](NC(=O)c4ccccc4)c4ccccc4)C(C)=C1C3(C)C)[C@]1(OC(C)=O)CO[C@@H]1C[C@@H]2O [PACLITAXEL] | 0.0673 |  | 0.0217 | 
COc1cccc(/C=C/C(=O)c2nc3ccccc3[nH]2)c1 | 0.58 | 21.7 | 5.68 | IC50 [4]: 4.75 µM; Activity [19]: 60.5%; Activity [20]: 19%; Activity [21]: 20.5%; LD50 [12]: 1220 mg/kg; TGI [13]: Dose-dependent effect; Activity [14]: Non-toxic; inhibition [22]: Active
O=C(/C=C/c1cccc(Br)c1)c1nc2ccccc2[nH]1 | 0.79 | 19.3 | 1.59 | IC50 [4]: 2.94 µM
O=C(CCc1cccc(Cl)c1)c1nc2ccccc2[nH]1 | > 100 | > 100 | > 100 | 
O=C(/C=C/c1ccncc1)c1nc2ccccc2[nH]1 | 0.71 | 20.9 | 6.94 | IC50 [4]: 5.61 µM
COc1ccccc1/C=C/C(=O)c1nc2ccccc2[nH]1 | 4.79 | 41.3 | 7.99 | 
COc1ccc(C2=N[C@H](c3ccc(Cl)cc3)[C@H](c3ccc(Cl)cc3)N2C(=O)N2CCNC(=O)C2)c(OC(C)C)c1 |  |  |  | Activity [23]: 62.5%; Activity [24]: 24.8%; Activity [25]: 12.7%
O=C(/C=C/c1ccccn1)c1nc2ccccc2s1 | > 100 | > 100 | > 100 | 
COc1cccc(/C=C/C(=O)c2nc3ccccc3o2)c1 | > 100 | > 100 | > 100 | 
Cc1ccccc1/C=C/C(=O)c1nc2ccccc2[nH]1 | 0.86 | 62.5 | 6.71 | IC50 [4]: 4.39 µM
OC(/C=C/c1ccccn1)c1nc2ccccc2[nH]1 (stereo not drawn) | > 100 | > 100 | > 50 | 
O=C(/C=C/c1ccccn1)c1nc2ccccc2o1 | > 100 | > 100 | > 100 | 
COc1cccc(/C=C/C(O)c2nc3ccccc3[nH]2)c1 (stereo not drawn) | > 100 | > 100 | > 100 | 
OC(/C=C/c1cccc(Cl)c1)c1nc2ccccc2[nH]1 (stereo not drawn) | > 100 | > 100 | > 100 | 
COc1ccc(/C=C/C(=O)c2nc3ccccc3[nH]2)cc1 | 13.1 | > 100 | 7.41 | 
O=C(/C=C/c1ccc(Br)cc1)c1nc2ccccc2[nH]1 | 19.6 | 52.7 | 10.9 | 
O=C(/C=C/c1ccc(Cl)cc1)c1nc2ccccc2[nH]1 | 6.79 | 24.8 | 12.5 | 
